ChEMBL document CHEMBL3507680, “University of Dundee, Gates Library screen for HepG2 cell viability”

Assay: Human HepG2 cell viability assay in 384 well format
Assay type: toxicity, cell-based
Parameters: dose 125 nL, time 70.5 hour; cytotoxicity at 70.5 h: concentration not given beside the values
Settings: HepG2 cells, read-out: Inhibition

SMILES	cytotoxicity at 70.5 h [%]
CCc1nnc(Nc2cc(C)nc(C3CCN(c4cnccn4)C3)n2)s1 (stereo not drawn)	-15.3
CC(=O)N[C@@H]1CN(S(=O)(=O)c2ccc(Cl)cc2)C[C@H]1O	-7.41
Cc1cc(Nc2ncccn2)nc(C2CCCN(CCO)C2)n1 (stereo not drawn)	-9.85
O=C1CCC[C@]2(CN(S(=O)(=O)N3CCCCC3)C[C@H]2c2cccnc2)N1	-6.21
CCCC(=O)N1CCCC(c2cc3cccnc3c(O)n2)C1 (stereo not drawn)	-13.1
Cn1ccc(C(=O)N2CCCC(c3cc4cccnc4c(O)n3)C2)n1 (stereo not drawn)	-9.08
FC(F)(F)c1cc(C2CCNCC2)nc(-c2ccsc2)n1	-11.8
CN1CCN(c2nc(O)cc(Cc3ccccc3F)n2)CC1	-4.68
CCN1CCN(c2nc(O)cc(Cc3ccccc3F)n2)CC1	-0.665
CC1(c2cc[nH]n2)CCN(C(=O)c2ccc(Cl)cc2)CC1	-4.57
NC(=O)C1(Cc2ccc(-c3ccccc3)cc2)CCCNC1 (stereo not drawn)	-1.37
CN1CCC(c2cncc(C(=O)NCc3ccc(F)cc3)n2)CC1	-5.99
Oc1cc(CC2COCCN(CC3(O)CCOCC3)C2)ncn1 (stereo not drawn)	23
CC(C)CCNC(=O)C1CCCN1C(=O)Nc1cccc(F)c1 (stereo not drawn)	-6.59
COCCNc1nnc(-c2cnc(C)cn2)s1	-3.71
c1cc(-c2cnc(NC3CC3)nc2[C@@H]2CCCO2)ccn1	-8.62
CC(C)Nc1ncc(-c2ccncc2)c([C@@H]2CCCO2)n1	-8.69
CC(=O)N1CCOC(c2c(C(=O)O)sc3ccccc23)C1 (stereo not drawn)	-7.22
COc1ccccc1C1CNCCN1C(=O)c1ccc(F)cc1 (stereo not drawn)	0.353
Cc1nc(C(=O)NCc2ccccn2)cc(C2CCCN2)n1 (stereo not drawn)	20.2
CNC(=O)c1cccc(CC2COCCN(Cc3ccc(C)o3)C2)n1 (stereo not drawn)	-2.79

SMILES	cytotoxicity at 70.5 h [%]
NC(=O)c1ccccc1Oc1cccc(C2CCCNC2)n1 (stereo not drawn)	-4.29
CC(C)CN1CCCC1c1cc[nH]n1 (stereo not drawn)	-1.98
CCC(=O)N1CCN(C)C(=O)C(Cc2ccccc2-c2cccs2)C1 (stereo not drawn)	-1.38
COCCN1CCC(c2ncc(C(=O)N3CCOCC3)c(C)n2)CC1	-1.72
CC(C)(C)n1nnnc1CN(CCc1ccccc1)Cc1ccccc1	1.44
Cc1nnsc1C(=O)N1CCCCC1c1cc2nc(C)c(C)c(O)n2n1 (stereo not drawn)	-2.13
Fc1ccc(CN2CCC(c3noc(-c4cnccn4)n3)CC2)cc1F	-1.05
Fc1ccccc1CN1CCC(c2noc(-c3ccccn3)n2)CC1	1.88
O=C(C1CCOC1)N1Cc2ccccc2OC2(CCOCC2)C1 (stereo not drawn)	-2.81
Fc1cccc(CN2CCC(c3noc(-c4ccncc4)n3)CC2)c1F	2.58
COc1cc2cc3c(nc2cc1OC)OCCN(Cc1cccs1)C3	28
COc1cccc(CNCc2nc3ccccc3c(=O)[nH]2)c1	1.76
Cc1cnc(-c2nc(O)c3c(n2)CN(C(=O)C2CCOC2)CC3)cn1 (stereo not drawn)	-1.76
Cc1cnc(-c2nc(O)c3c(n2)CN(C(=O)CC2CCCC2)CC3)cn1	-2.15
CC1Cc2ccccc2N1C(=O)Cn1nc(-c2cccs2)cc(N)c1=O (stereo not drawn)	-3.41
Cc1nc2cc(C(=O)N3CCn4c(nnc4C4CC4)C3)ccc2s1	-2.23
c1cc(N2CCCCC2)ccc1-c1noc(CN2CCOCC2)n1	-0.0335
Cc1nc2ccc(C(=O)N3CCC(COc4ccccn4)CC3)cc2[nH]1	44.6
Cc1ccc(CNCCN2CCOCC2)o1	8.67
CCNC(=O)C1(Cc2ccc(-c3ccccc3)cc2)CCCNC1 (stereo not drawn)	4.78
CN1CCC(c2cccc(-c3cccc(C(=O)O)c3)n2)CC1	-8.16

SMILES	cytotoxicity at 70.5 h [%]
Clc1ccc(CN(CCN2CCOCC2)Cc2cccnc2)cc1Cl	-5.5
Cc1ccc(N(C)[C@@H]2CC[C@@H]3CN(C(=O)C4CCOCC4)C[C@@H]32)nn1	-6.01
O=C(Cc1ccc(O)cc1)N1CCCC(O)(CN2CCOCC2)CC1 (stereo not drawn)	-7.8
CS(=O)(=O)N[C@@H]1CN(C(=O)c2cc3ccccc3s2)C[C@H]1O	19
COc1ccc2[nH]cc(C(=O)N3C[C@@H](O)[C@H](NS(C)(=O)=O)C3)c2c1	-6.21
OCCN1CCCCC1c1cc[nH]n1 (stereo not drawn)	-8.74
CCOCC(=O)N1C[C@@H](O)[C@H](NC(C)=O)C1	-4.78
CO[C@H]1CN(S(=O)(=O)c2ccc(C)cc2)C[C@@]12CCCO2	-6.6
Cc1cc(CC2COCCN(CCc3ccccc3)C2)ncn1 (stereo not drawn)	17.8
CCn1ccc2ccnc(CC3CN(C(=O)c4ccc(F)cc4)C3)c21	-6.52
CC(=O)N1CCN([C@@H]2CN(C(=O)Cc3ccccc3C)C[C@H]2O)CC1	-2.44
NC(=O)c1cnc(NCC(=O)NCc2ccco2)c(Cl)c1	-9.01
CSc1cc2c(cc1NC(=O)NCc1ccncc1)OCCO2	2.15
CSc1cc2c(cc1NC(=O)N(C)Cc1cnn(C)c1)OCCO2	2.84
COCCN(C)C(=O)Nc1cc2c(cc1SC)OCCO2	10.9
CC(NC1(CNS(C)(=O)=O)CCOCC1)c1ccccc1 (stereo not drawn)	-8.35
CCCS(=O)(=O)NC(C)c1cccc(-n2cccn2)c1 (stereo not drawn)	-6.77
Cc1nc(NC(=O)NCc2cccnc2NCCN(C)C)sc1C	-2.85
CNC(=O)CNC(=O)Nc1ccc(Br)c(F)c1	-4.08
CCC(NC(=O)c1ccco1)c1nc(C(F)(F)F)cs1 (stereo not drawn)	-6.77
CC(=O)NCC(=O)N(CCc1ccccc1)C1CCOC1 (stereo not drawn)	-9.4

SMILES	cytotoxicity at 70.5 h [%]
N#Cc1cccc(OC2CCN(C(=O)c3cncc(O)c3)CC2)c1	-2.58
Cc1nnc(NCc2ccc(Br)cc2)o1	-4.41
Cc1nnc(NCc2ccc(Cl)cc2)o1	-6.23
CC(NS(=O)(=O)CC1(C#N)CCCC1)c1cccc(-n2cccn2)c1 (stereo not drawn)	-3.64
OCCCN1CCCC1c1ccc(Br)cc1 (stereo not drawn)	-9.27
CNC(=O)c1cccc(CNC2CCCSc3ccccc32)c1 (stereo not drawn)	-5.82
O=C(NCCc1nncn1C1CC1)C1(Cc2ccccc2)CCC1	-1.53
CC(C(=O)N(C)Cc1ccc(Br)o1)n1cccn1 (stereo not drawn)	-4.49
CC(OCC1CC1)C(=O)N1CCCN(c2cccnn2)CC1 (stereo not drawn)	-5.5
CC(C)(CNC(=O)Nc1ccc(S(=O)(=O)C(F)F)cc1)N1CCOCC1	-7.87
CS(=O)(=O)N1CCN(C(=O)CCC2CCCO2)CC1 (stereo not drawn)	-14.1
Cc1cnccc1-c1cnn(CCNC(=O)c2ccccn2)c1C1CC1	27.5
Cc1cnccc1-c1cnn(CCNC(=O)c2cccnc2)c1C1CC1	-5.95
Cc1cnccc1-c1cnn(CCNC(=O)c2ccncc2)c1C1CC1	17.4
Cc1cnccc1-c1cnn(CCNC(=O)C(C)(C)C)c1C1CC1	-9.87
CCOC(=O)C1(Cc2ccccc2-c2ccccc2OC)CCNCC1	11
CC(C)c1cc(C(=O)NCC2CCCN(C(C)C)C2)n(C)n1 (stereo not drawn)	-0.374
Cc1cccc(CNC(Cc2ccsc2)c2nc(C)c(C)s2)n1 (stereo not drawn)	1.1
CN(Cc1ccnc2ccccc12)C1CCS(=O)(=O)C1 (stereo not drawn)	-6.17
CCn1ccc2ccnc(CC3CN(C(=O)Cn4ccnc4C)C3)c21	-5.67
